Test results as given in US20260132123A1, “ABAD INHIBITOR COMPOUNDS” (UNIVERSITY COURT OF THE UNIVERSITY OF ST ANDREWS, priority 2021, published 2026).
Read-outs that look alike come from different tables or passages of the source.

Key:
[1] = Mouse hepatocyte stability; type: in vitro ADME; parameters: k: unit not given here; settings: for Heps Category: hepatocyte metabolism category, mouse; for Cl / half-life / k: mouse hepatocytes; for Cl: clearance; for k: k=absorption rate constant (so in the source)
Excerpt: Table 5: Initial mouse hepatocyte stability and plasma protein binding experiments were undertaken on some of the best exemplars from the representative series with AG18051 a previously published 17β-HSD10 inhibitor (C. R. Kissinger et al., J. Mol. Biol., 342 (2004), p. 943; Lim, Y.-A., Grimm, A., Giese, M. PLoS ONE (2011), 6, e28887.) Ref: shown for comparison. Where k=absorption rate constant Cl=clearance, T1/2=half-life, Heps=hepatocyte metabolism, PPB=plasma protein binding.

[2] = target: T1, 17β-HSD10 (Homo sapiens, UniProt Q99714); assay: 17β-HSD10 (ABAD) enzyme inhibition assay, NADH oxidation read at 340 nm (primary screen and dose response); type: biochemical; settings: for EC50 / Max. Effect (%) / Hill Slope / Max. Fit / Min. Fit: recombinant 17βHSD10 enzyme assay; for Hill Slope / Max. Fit / Min. Fit: curve fit
T1 construct: Histev (histidine tag with TEV site) (N, cleaved yes); made in house; host or cells: E. coli BL21-CodonPlus
T1 sequence (Q99714 1-261): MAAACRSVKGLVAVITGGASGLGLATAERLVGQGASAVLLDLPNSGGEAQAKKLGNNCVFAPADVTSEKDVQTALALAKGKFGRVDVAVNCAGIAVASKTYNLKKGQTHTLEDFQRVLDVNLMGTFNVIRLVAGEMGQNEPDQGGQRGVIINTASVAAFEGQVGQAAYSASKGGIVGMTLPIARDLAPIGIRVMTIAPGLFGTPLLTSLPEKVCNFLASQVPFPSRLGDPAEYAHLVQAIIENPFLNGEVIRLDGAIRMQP
In short: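 Tag-cleaved recombinant human 17β-HSD10 (2.5 nM) preincubated 15 min with compound in Tris pH 7.4, NaCl, DTT, Tween, BSA (catalase in some runs), then 100 μM acetoacetyl-CoA and NADH added. NADH oxidation by A340 fall: 35 min endpoint for screening at 10 μM; continuous 45 min for dose response.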

[3] = test system: mtsABAD HEK293 cells; assay: Lactate dehydrogenase (LDH) cytotoxicity assay; type: cell-based, human; settings: 50 μM compound
[4] = test system: mtsABAD HEK293 cells; assay: Alamar Blue cell viability assay; type: cell-based, human; settings: 50 μM compound
[5] = Table 5, read-out: Mean ABAD pIC50 (converted)

| SMILES | Heps Category [1] | Cl [1] [ml/minute/g liver] | half-life [1] [min] | k [1] | IC50 [2, 5] [µM] | EC50 [2] [µM] | Max. Effect (%) [2] [%] | Hill Slope [2] | Max. Fit [2] | Min. Fit [2] | IC50 ([2]; 17β-HSD10 dose response / inhibition assay, read-out: 17β-HSD10 pIC50 (converted)) [µM] | figure in brackets after the pIC50 bound ([2]; Table 3, equals Max. Effect (%) of Table 6) | fold improvement in activity / potency ([2]; relative to the parent compound of the sentence) | LDH % Toxicity (50 μM Dose) ([3]; listed as ESC1002204-01) [%] | Alamar Blue % Viability (50 μM Dose) ([4]; listed as ESC1002204-01) [%] | 17β-HSD10 / ABAD activity in words (SAR discussion) [2] | LDH % Toxicity (50 μM Dose) [3] [%] | Alamar Blue % Viability (50 μM Dose) [4] [%] |
| --- | --- | --- | --- | --- | --- | --- | --- | --- | --- | --- | --- | --- | --- | --- | --- | --- | --- | --- |
| Cc1ccsc1C(=O)N(CC(C)C)c1cccc(N(C)Cc2c[nH]cn2)c1 [ESC1002597] | Mod | 7.2 | 46.2 | 0.02 | 0.398 | 0.398 | 100 | 1.4 | 96 | 4 | – | – | – | – | – | – | – | – |
| Cc1ncc(CN(C)c2cccc(N(CC(C)C)C(=O)c3ccccc3F)c2)[nH]1 [ESC1002204] | High | 54 | 6.16 | 0.11 | 0.398 | 0.398 | 97 | 1.2 | 98 | 0 | – | – | – | 5.048 | 88.836 | only slightly reduced ABAD inhibition levels | – | – |
| COc1ccc(-c2ccccc2[C@@H]2CCCN2C(=O)c2sccc2C)cn1 (single isomer, unassigned) [ESC1002161] | – | – | – | – | – | > 20 | 7 | – | – | – | > 20 | 7 | – | – | – | – | 4.783 | 92.566 |
| COc1ccc(-c2ccccc2[C@H]2CCCN2C(=O)c2sccc2C)cc1 [ESC1002089] | – | – | – | – | – | – | – | 1.1 | 98 | 0 | – | – | under 3 fold | – | – | – | 5.398 | 83.064 |
| CCc1ccc(CN(C)c2cccc(N(CC(C)C)C(=O)c3ccccc3F)c2)cn1 [ESC1002213] | – | – | – | – | – | > 20 | 15 | – | – | – | – | – | – | – | – | – | 8.010 | 81.860 |

Second part, led by results:

| Heps Category [1] | Cl [1] [ml/minute/g liver] | half-life [1] [min] | k [1] | IC50 [2, 5] [µM] | EC50 [2] [µM] | Max. Effect (%) [2] [%] | Hill Slope [2] | Max. Fit [2] | Min. Fit [2] | IC50 ([2]; 17β-HSD10 dose response / inhibition assay, read-out: 17β-HSD10 pIC50 (converted)) [µM] | figure in brackets after the pIC50 bound ([2]; Table 3, equals Max. Effect (%) of Table 6) | fold improvement in activity / potency ([2]; relative to the parent compound of the sentence) | SMILES | LDH % Toxicity (50 μM Dose) ([3]; listed as ESC1002204-01) [%] | Alamar Blue % Viability (50 μM Dose) ([4]; listed as ESC1002204-01) [%] | 17β-HSD10 / ABAD activity in words (SAR discussion) [2] | LDH % Toxicity (50 μM Dose) [3] [%] | Alamar Blue % Viability (50 μM Dose) [4] [%] |
| --- | --- | --- | --- | --- | --- | --- | --- | --- | --- | --- | --- | --- | --- | --- | --- | --- | --- | --- |
| High | 62.4 | 5.33 | 0.13 | 0.105 | 0.115 | 94 | 0.89 | 95 | −10 | – | – | – | COc1cccc(-c2ccccc2[C@@H]2CCCN2C(=O)c2[nH]ncc2Cl)c1 (single isomer, unassigned) [ESC1002757] | – | – | – | – | – |
| High | 71.5 | 4.65 | 0.15 | 0.17 | 0.191 | 94 | 1 | 93 | −3 | – | – | – | Cc1ccsc1C(=O)N1CCC[C@H]1c1ccccc1-c1cccc(Cl)c1 (single isomer, unassigned) [ESC1002769] | – | – | – | – | – |
